These results are taken from patent publication US7525011B2, “Transgenic cancer models in fish” (Dana-Farber Cancer Institute, priority 2002, dated 2009).

One series relates to zebrafish embryos. The experiment in a line: 96-well plate embryo survival assay. Format: in vivo. The note with it: 1% DMSO in egg water, 5- to 8-day old embryos. How it is done:
Next it was determined if 5- to 8-day old zebrafish embryos are able to survive in 96 well plates, and what […] of water was necessary to attain high levels of survival. Six-day old zebrafish embryos were allocated to wells in a 96 well plate. Three to four embryos were grown in 250, 150, and 100 μl of egg water with and without 1% DMSO and analyzed daily for mortality.

Another series relates to MYC-ER. Particulars: in the presence of tamoxifen; by 300 days of development; CD2-MYC-ER mouse models; cited from earlier work.

Turning to `C[S+](C)[O-]` [DMSO], the “effect on embryo survival” value with zebrafish embryos is on record as “no significant effect”. In the case of `CC/C(=C(\c1ccccc1)c1ccc(OCCN(C)C)cc1)c1ccccc1` [tamoxifen], the offspring developing tumors in the series on MYC-ER is on record as 62%.
